“And” between values parts separate entries of the source, which are not always exact repeats. Equal values may be shown once.

Assay [1] has as its target T1, SBC2 (Homo sapiens, UniProt O14508).
T1 construct: SOCS2 (amino acids 32–198); His6 (N, cleaved yes); made in house; host or cells: E. coli BL21(DE3)
The assay is described as follows: Surface plasmon resonance (SPR) with SBC2 immobilized on the chip. The assay is classed as binding. From the text: (§1) First, we decided to optimize the N-terminal region of 1 while maintaining the N-methylamide group at the C-terminus. To generate analogs rapidly, we employed a solid phase synthesis using methyl indole AM resin. After Fmoc deprotection, the resin was loaded with Fmoc-Tyr (PO(OBzl)2)-OH[29]. Subsequent coupling with various commercially available carboxylic acids and cleavage with TFA allowed the rapid synthesis of N-methylcarboxamide phosphotyrosines (Supplementary Fig. 1). We introduced different substituents at the N-terminus to cover a range of physicochemical properties (e.g. alicyclic, heterocyclic, aromatic with electron-withdrawing and electron-donating groups) to maximize potential interactions (see Table 1 for representative examples). Binding affinities of the synthesized compounds for SOCS2 were measured via two orthogonal biophysical binding assays: (1) surface plasmon resonance (SPR) with SBC2 immobilized on the chip (Supplementary Fig. 7); and (2) ^19F ligand-observed displacement NMR assays, providing two orthogonal biophysical measurements of dissociation constants (KD)[29],[31]. We found an excellent correlation between the KD values measured via the two techniques (Table 1). Para-substituted benzyl moieties yielded the greatest contributions to binding affinity and there were only slight differences between electron-withdrawing groups such as a methyl ester and electron-donating such as methoxy group.
SPR experiments were performed using a Biacore S200 instrument (GE Healthcare) in 20 mM HEPES pH 7.5, 150 mM NaCl, 1 mM TCEP, 0.005% Tween20, 2% DMSO buffer at 10 °C. Biotinylated SBC2 was immobilized onto a chip surface (the final surface density of biotinylated SBC2 was ~3000–4000 RU). AviTagged-SBC was biotinylated using BirA enzyme as per manufacturer’s protocol (Avidity). Compounds were serially diluted in the running buffer and injected individually: contact time 60 s, flow rate 30 μL/min, dissociation time 150 s, using a stabilization period of 30 s and syringe wash (50% DMSO) between injections. Data analysis was carried out using Biacore Evaluation Software (GE Healthcare). All data were double-referenced for reference surface and blank injection. The processed sensograms were fit to a steady-state affinity using a 1:1 binding model for KD estimation.

Assay [2] concerns the target T1, SBC2. The assay is described as follows: Isothermal titration calorimetry (ITC), direct titration. In kind it is binding. Conditions: for Kd: ITC KD, direct ITC, 298 K. The procedure: Experiments were performed with ITC200 instrument (Malvern) in 100 mM HEPES pH 7.5, 50 mM NaCl, 0.5 mM TCEP at 298 K. The ITC titration consisted of 0.4 μl initial injection (discarded during data analysis) followed by 19 of 2 μl injections at 120 s interval between injections. 1 mM of the ligands in 2–4% DMSO were titrated into 100 μM SBC2. […] Binding data was subtracted from a control titration where ligand was titrated into buffer, and fitted using a one-set-of-site binding model to obtain dissociation constant (Kd), binding enthalpy (ΔH), and stoichiometry (N) using MicroCal PEAQ-ITC Analysis Software1.1.0.1262 and MicroCal ITC-ORIGIN Analysis Software 7.0 (Malvern).
A general note: In ITC the heat of successive injections is recorded.

Assay [3] addresses T1, SBC2. Put plainly: 19F ligand-observed displacement (CPMG) NMR assay. The assay is classed as binding. Particulars: Table 1, n = 1.
Description: as §1, with “We introduced different substituents at the N-terminus to cover a range of physicochemical properties (e.g. alicyclic, heterocyclic, aromatic with electron-withdrawing and electron-donating groups) to maximize potential interactions (see Table 1 for representative examples).” left out, “Para-substituted benzyl moieties yielded the greatest contributions to binding affinity and there were only slight differences between electron-withdrawing groups such as a methyl ester and electron-donating such as methoxy group.” left out
Experiments were performed using an Avance III 500 MHz Bruker spectrometer equipped with a 5 mm CPQCI 1H/19 F/13 C/15 N/D Z-GRD cryoprobe at 298 K as described previously. Spectra were recorded using 80 scans of a CPMG pulse sequence that attenuates broad resonances. […] All NMR data were processed and analyzed using TopSpin (Bruker). The dissociation constant was calculated as described previously.

Assay [4] deals with GHR pY595 peptide (Homo sapiens) (UniProt P10912). Particulars: cited from earlier work.
Where [5] appears, read: Table 2, second-round library, n = 1.

T1 sequence (O14508 32-198): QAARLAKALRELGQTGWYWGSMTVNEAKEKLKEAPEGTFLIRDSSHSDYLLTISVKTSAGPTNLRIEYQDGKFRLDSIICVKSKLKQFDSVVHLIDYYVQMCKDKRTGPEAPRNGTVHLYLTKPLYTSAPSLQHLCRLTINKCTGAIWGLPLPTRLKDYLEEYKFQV
T1 sequence (Q15370 1-104 partner limits assumed): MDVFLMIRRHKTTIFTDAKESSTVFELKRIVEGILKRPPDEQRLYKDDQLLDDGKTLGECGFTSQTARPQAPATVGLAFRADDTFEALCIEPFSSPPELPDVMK
T1 sequence (Q15369 17-112 partner limits assumed): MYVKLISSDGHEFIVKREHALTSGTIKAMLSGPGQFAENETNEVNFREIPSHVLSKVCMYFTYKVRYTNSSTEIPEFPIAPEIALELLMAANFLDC
Sequence of SOCS2 SH2 (O14508 45-159): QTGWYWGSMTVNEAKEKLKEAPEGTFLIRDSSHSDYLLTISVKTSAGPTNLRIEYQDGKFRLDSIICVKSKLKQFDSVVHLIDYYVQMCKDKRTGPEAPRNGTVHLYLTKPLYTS
Sequence of GHR pY595 peptide (Homo sapiens) (P10912 whole entry, looked up, tested part not stated): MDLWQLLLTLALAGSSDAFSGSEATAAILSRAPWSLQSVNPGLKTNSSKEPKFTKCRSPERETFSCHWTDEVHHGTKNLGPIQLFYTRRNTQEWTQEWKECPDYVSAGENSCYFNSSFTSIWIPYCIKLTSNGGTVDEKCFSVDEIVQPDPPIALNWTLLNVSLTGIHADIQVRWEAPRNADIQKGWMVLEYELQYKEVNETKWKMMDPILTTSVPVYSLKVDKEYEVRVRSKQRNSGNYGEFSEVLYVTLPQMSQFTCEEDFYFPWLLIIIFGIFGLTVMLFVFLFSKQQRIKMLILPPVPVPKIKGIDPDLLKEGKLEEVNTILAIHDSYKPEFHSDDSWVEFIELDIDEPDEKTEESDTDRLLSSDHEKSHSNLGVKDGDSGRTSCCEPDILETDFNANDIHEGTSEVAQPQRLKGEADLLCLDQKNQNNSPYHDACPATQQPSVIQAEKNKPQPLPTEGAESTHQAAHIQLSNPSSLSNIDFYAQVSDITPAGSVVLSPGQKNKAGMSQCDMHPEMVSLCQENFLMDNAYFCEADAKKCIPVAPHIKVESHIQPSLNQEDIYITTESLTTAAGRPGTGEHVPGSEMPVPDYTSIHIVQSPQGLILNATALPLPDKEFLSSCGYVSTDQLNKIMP

Regarding `CNC(=O)[C@H](Cc1ccc(OP(=O)(O)O)cc1)NC(C)=O` [Compound 1], the Kd at SBC2 [1] (Table 1, n = 1) was 269 µM; at SBC2 [2] it was 192 µM and 190 µM; at SBC2 [3], 186 µM. Besides, the “weaker binding than the full phosphorylated peptide” value on SBC2 [2] amounted to 100 fold.

Consider `CNC(=O)[C@H](Cc1ccc(OP(=O)(O)O)cc1)NC(=O)Cc1ccc(F)cc1` [Compound 5], for which the Kd at SBC2 [1] (Table 1, n = 1) was 49 µM; at SBC2 [3], 32 µM.

Take `Cc1cc(CNC(=O)[C@H](Cc2ccc(OP(=O)(O)O)cc2)NC(=O)Cc2ccc(F)cc2)ccc1F` [Compound 11, (S)-4-(3-((4-fluoro-3-methylbenzyl)amino)-2-(2-(4-fluorophenyl)acetamido)-3-oxopropyl)phenyl phosphate]: binding on SBC2 [1] (setting [5]) was put at a Kd of 2.7 µM. Moreover, on SBC2 [2], the “ITC ΔG” value was -34.4 kJ/mol, the “ITC ΔH” value was -22 kJ/mol, the “ITC −TΔS” value was -12.5 kJ/mol and the dissociation constant (Kd) was 1 µM.

`CCc1cc(CNC(=O)[C@H](Cc2ccc(OP(=O)(O)O)cc2)NC(=O)Cc2ccc(F)cc2)ccc1F` [Compound 12, (S)-4-(3-((3-ethyl-4-fluorobenzyl)amino)-2-(2-(4-fluorophenyl)acetamido)-3-oxopropyl)phenyl phosphate] displayed a Kd on SBC2 [1] (setting [5]) of 2.2 µM. Moreover, on SBC2 [2], the “ITC ΔG” value was -35.9 kJ/mol; the “ITC ΔH” value is -34.1 kJ/mol; the “ITC −TΔS” value was -1.8 kJ/mol; the Kd is 0.5 µM and 0.51 µM.

`C=CCc1cc(CNC(=O)[C@H](Cc2ccc(OP(=O)(O)O)cc2)NC(=O)Cc2ccc(F)cc2)ccc1F` [Compound 13] registered a Kd on SBC2 [1] (setting [5]) of 2.4 µM. Moreover, at SBC2 [2], the “ITC ΔG” value was -36.6 kJ/mol, the “ITC −TΔS” value is -6.78 kJ/mol and binding was put at a Kd of 0.38 µM.

Take `C=CCc1cccc(CNC(=O)[C@H](Cc2ccc(OP(=O)(O)O)cc2)NC(=O)Cc2ccc(F)cc2)c1` [Compound 14, (S)-4-(3-((3-allylbenzyl)amino)-2-(2-(4-fluorophenyl)acetamido)-3-oxopropyl)phenyl phosphate]: at SBC2 [1] (setting [5]), the Kd was 2.4 µM. At SBC2 [2], the “ITC ΔG” value was -36 kJ/mol, the “ITC ΔH” value is -26.4 kJ/mol, the “ITC −TΔS” value was -9.46 kJ/mol and the Kd came out at 0.48 µM.

As to SOCS2 SH2 (from UniProt O14508), in assay [4], the dissociation constant (Kd) was 1.1 µM.

Usually Kd stands for the free concentration of one partner at which half of the binding sites on the other are occupied at equilibrium, for simple one-to-one binding.

The values are drawn from PMC10564737, “Structure-based design of a phosphotyrosine-masked covalent ligand targeting the E3 ligase SOCS2” (Nature Communications, 2023).
